Measurements taken from US12077503B2, “Substituted cyclic amides and their use as herbicides” (FMC CORPORATION, priority 2015, dated 2024).

Tests used:
Format in all cases: in vivo
[1] = system: ducksalad (Heteranthera limosa); test: Test B flooded paddy test; details: Heteranthera limosa, 250 g ai/ha, Flood; 0 to 100 scale where 0 is no effect and 100 is complete control; read-out: Ducksalad plant response rating
In short: (§1)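 Plants at 2-leaf stage flooded to 3 cm above soil, with compounds applied directly to paddy water and that depth maintained. Plants kept in greenhouse 13–15 d. Visual rating versus controls on a 0 (no effect) to 100 (complete control) scale.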

[2] = system: barnyardgrass (Echinochloa crus-galli); test: Test B flooded paddy test; details: Echinochloa crus-galli, 250 g ai/ha, Flood; 0 to 100 scale where 0 is no effect and 100 is complete control; read-out: Barnyardgrass plant response rating
In short: as §1

[3] = system: sedge, umbrella (small-flower umbrella sedge, Cyperus difformis); test: Test B flooded paddy test; details: Cyperus difformis, 250 g ai/ha, Flood; 0 to 100 scale where 0 is no effect and 100 is complete control; read-out: Sedge, Umbrella plant response rating
In short: as §1

rice (Oryra sativa) = test: Test B flooded paddy test; details: Oryza sativa, 250 g ai/ha, Flood; 0 to 100 scale where 0 is no effect and 100 is complete control; read-out: Rice plant response rating
In short: as §1

[4] = system: giant foxtail (Setaria faberii); test: Test A preemergence; details: Setaria faberi, pre-emergence, 240 h, 0 to 100 scale where 0 is no effect and 100 is complete control, read-out: Foxtail, Giant plant response rating
In short: (§2)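 Seeds sprayed preemergence with a directed soil spray, or plants at 2 to 10 cm height and one- to two-leaf stage sprayed postemergence, with test chemicals in a non-phytotoxic solvent mixture containing surfactant, in loam soil–sand blend. Injury rated visually against untreated controls after about 10 d in greenhouse, 0 (no effect) to 100 (complete control).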

[5] = system: ragweed (common ragweed, Ambrosia elatior); test: Test A preemergence; details: Ambrosia artemisiifolia, pre-emergence, 240 h, 0 to 100 scale where 0 is no effect and 100 is complete control, read-out: Ragweed plant response rating
In short: as §2

Kochia (Kochia scoparia) [6] = test: Test A preemergence; details: Bassia scoparia, pre-emergence, 240 h, 0 to 100 scale where 0 is no effect and 100 is complete control, read-out: Kochia plant response rating
In short: as §2

[7] = system: pigweed (Amaranthus retroflexus); test: Test A preemergence; details: Amaranthus retroflexus, pre-emergence, 240 h, 0 to 100 scale where 0 is no effect and 100 is complete control, read-out: Pigweed plant response rating
[8] = system: barnyardgrass (Echinochloa crus-galli); test: Test A preemergence; details: Echinochloa crus-galli, pre-emergence, 240 h, 0 to 100 scale where 0 is no effect and 100 is complete control, read-out: Barnyardgrass plant response rating
In short: as §2

[9] = system: ryegrass, Italian (Italian ryegrass, Lolium multiflorum); test: Test A preemergence; details: Lolium multiflorum, pre-emergence, 240 h, 0 to 100 scale where 0 is no effect and 100 is complete control, read-out: Ryegrass, Italian plant response rating
In short: as §2

[10] = system: giant foxtail (Setaria faberii); test: Test A postemergence; details: Setaria faberi, post-emergence, 240 h, read-out: Foxtail, Giant plant response rating (0 to 100 scale)
In short: as §2

[11] = system: ragweed (common ragweed, Ambrosia elatior); test: Test A postemergence; details: Ambrosia artemisiifolia, post-emergence, 240 h, read-out: Ragweed plant response rating (0 to 100 scale)
In short: as §2

Kochia (Kochia scoparia) [12] = test: Test A postemergence; details: Bassia scoparia, post-emergence, 240 h, read-out: Kochia plant response rating (0 to 100 scale)
In short: as §2

[13] = system: wheat (Triticum aestivum); test: Test A postemergence; details: Triticum aestivum, post-emergence, 240 h, Postemergence, 31 g ai/ha; 0 is no effect, 100 is complete control; read-out: Wheat plant response rating (0 to 100 scale)
In short: as §2

[14] = system: pigweed (Amaranthus retroflexus); test: Test A postemergence; details: Amaranthus retroflexus, post-emergence, 240 h, read-out: Pigweed plant response rating (0 to 100 scale)
In short: as §2

corn (Zea mays) = test: Test A postemergence; details: Zea mays, post-emergence, 240 h, read-out: Corn plant response rating (0 to 100 scale)
In short: as §2

[15] = system: barnyardgrass (Echinochloa crus-galli); test: Test A postemergence; details: Echinochloa crus-galli, post-emergence, 240 h, read-out: Barnyardgrass plant response rating (0 to 100 scale)
In short: as §2

[16] = system: blackgrass (Alopecurus myosuroides); test: Test A postemergence; details: Alopecurus myosuroides, post-emergence, 240 h, read-out: Blackgrass plant response rating (0 to 100 scale)
In short: as §2

[17] = system: ryegrass, Italian (Italian ryegrass, Lolium multiflorum); test: Test A postemergence; details: Lolium multiflorum, post-emergence, 240 h, read-out: Ryegrass, Italian plant response rating (0 to 100 scale)
In short: as §2

[18] = system: Galium (catchweed bedstraw, Galium aparine); test: Test A postemergence; details: Galium, post-emergence, 240 h, read-out: Galium plant response rating (0 to 100 scale)
In short: as §2

[19] = 125 g ai/ha, preemergence, visual injury rating, approximately 10 d
[20] = 125 g ai/ha, postemergence, visual injury vs untreated controls after approx. 10 d, 0 = no effect, 100 = complete control
[21] = Postemergence, 31 g ai/ha, 0 is no effect, 100 is complete control

For `CN1C[C@H](c2ccc(Cl)c(F)c2)[C@@H](C(=O)Nc2cccc(F)c2F)C1=O` [Compound 1265], the pest or weed control at 250 g/ha [1] was 90%, the pest or weed control at 250 g/ha [2] was 60% and the pest or weed control at 250 g/ha [3] was 0%. It also gave a pest or weed control at 250 g/ha (rice (Oryra sativa)) of 45%, a pest or weed control at 31 g/ha ([4]; 31 g ai/ha, Preemergence) of 90% and a pest or weed control at 125 g/ha [4, 19] of 90%. For the same compound, the pest or weed control at 31 g/ha ([5]; 31 g ai/ha, Preemergence) was 0%, the pest or weed control at 125 g/ha [5, 19] was 0% and the pest or weed control at 31 g/ha (Kochia (Kochia scoparia) [6]; 31 g ai/ha, Preemergence) was 30%. It also gave a pest or weed control at 125 g/ha (Kochia (Kochia scoparia) [6]; [19]) of 70%, a pest or weed control at 31 g/ha ([7]; 31 g ai/ha, Preemergence) of 0% and a pest or weed control at 125 g/ha [7, 19] of 80%. It also gave a pest or weed control at 31 g/ha ([8]; 31 g ai/ha, Preemergence) of 80%, a pest or weed control at 125 g/ha [8, 19] of 90% and a pest or weed control at 31 g/ha ([9]; 31 g ai/ha, Preemergence) of 50%. For the same compound, the pest or weed control at 125 g/ha [9, 19] was 60%, the pest or weed control at 125 g/ha [10, 20] was 80% and the pest or weed control at 31 g/ha [10, 21] was 80%. The pest or weed control at 125 g/ha [11, 20] was 30%, the pest or weed control at 31 g/ha [11, 21] was 0% and the pest or weed control at 125 g/ha (Kochia (Kochia scoparia) [12]; [20]) was 70%. The pest or weed control at 31 g/ha (Kochia (Kochia scoparia) [12]; [21]) was 50%, the plant injury at 31 g/ha [13] was 0% and the pest or weed control at 125 g/ha [14, 20] was 70%. For the same compound, the pest or weed control at 31 g/ha [14, 21] was 30%, the plant injury at 125 g/ha (corn (Zea mays); [20]) was 70% and the plant injury at 31 g/ha (corn (Zea mays); [21]) was 30%. The pest or weed control at 125 g/ha [15, 20] was 90%, the pest or weed control at 31 g/ha [15, 21] was 80% and the pest or weed control at 125 g/ha [16, 20] was 50%. The pest or weed control at 31 g/ha [16, 21] was 0%, the pest or weed control at 125 g/ha [17, 20] was 30% and the pest or weed control at 31 g/ha [17, 21] was 0%. The pest or weed control at 125 g/ha [18, 20] was 60% and the pest or weed control at 31 g/ha [18, 21] was 60%.
